From patent US20250302746A1, “METHOD FOR PRODUCING EMULSIFIED COMPOSITION” (Daicel Corporation, priority 2022, published 2025)

What was measured:
[1] = Test Example 4: transmittance of emulsified composition (660 nm, optical path 10 mm); format: physicochemical; details: balance glycerol, heated 120° C. 3 min, 15000 rpm
Method: (§1) The transmittance of the emulsified composition produced in this example was determined as a transmittance for light having a wave length of 660 nm at a measurement optical path length of 10 mm using an ultraviolet-visible spectrophotometer UV-1800 (manufactured by Shimadzu Corporation). In the following test, a case where the transmittance was less than 40% was indicated by “C”, a case where the transmittance was 40% or greater and less than 80% was indicated by “B”, and a case where the transmittance was 80% or greater was indicated by “A”.
(§2) A solution having a composition of parts by weight shown in Table 4 (a solution in which the balance is glycerol and the total is 100 parts by weight) was prepared and heated at 120° C. for 3 minutes using a block heater. During being heated, the solution was mixed using a polytron homogenizer at 15000 rpm. Thereafter, the solution was allowed to stand at room temperature (about 25° C.) and the temperature of the solution was lowered to room temperature (about 25° C.) to produce an emulsified composition, and the transmittance was measured.

[2] = Test Example 3: transmittance of emulsified composition (660 nm, optical path 10 mm); format: physicochemical; details: balance glycerol, 15000 rpm
Method: as §1
as §2, with “3” for “4”, “a heating temperature shown in Table 3” for “120° C.”

[3] = Test Example 1: transmittance of emulsified composition (660 nm, optical path 10 mm); format: physicochemical; details: balance glycerol, 10000 rpm
Method: as §1
as §2, with “1” for “4”, “a heating temperature shown in Table 1” for “120° C.”, “10000” for “15000”

[4] = Test Example 2: transmittance of emulsified composition (660 nm, optical path 10 mm); format: physicochemical; details: balance glycerol, heated 120° C. 3 min, 15000 rpm
Method: as §1
as §2, with “2” for “4”

[5] = cited from earlier work
[6] = urolithin 0.5, RYOTO polyglyester L-7D (HLB 17.0) 50 parts by weight
[7] = urolithin 0.1, RYOTO polyglyester L-7D (HLB 17.0) 50 parts by weight
[8] = Urolithin A 0.1, Decaglyn 1-LF (HLB 15.5) 5 parts by weight, heated 100° C. 3 min
[9] = Urolithin A 0.1, Decaglyn 1-LF (HLB 15.5) 5 parts by weight, heated 120° C. 3 min
[10] = Urolithin A 0.1, RYOTO polyglyester L-7D (HLB 17.0) 5 parts by weight, heated 100° C. 3 min
[11] = Urolithin A 0.1, RYOTO polyglyester L-7D (HLB 17.0) 5 parts by weight, heated 120° C. 3 min

urolithin M8
Transmittance results [1, 6]: A (the transmittance was 80% or greater)

O=c1oc2cc(O)ccc2c2c(O)c(O)c(O)cc12 [Urolithin M6, urolithin M6]
Transmittance results [1, 6]: A (the transmittance was 80% or greater)

O=c1oc2cc(O)ccc2c2c(O)cc(O)cc12 [Urolithin M7, urolithin M7]
Transmittance results [1, 7]: A (the transmittance was 80% or greater)

O=c1oc2cc(O)ccc2c2ccccc12 [Urolithin B, urolithin B]
Transmittance results ([1]; urolithin 1.0, RYOTO polyglyester L-7D (HLB 17.0) 50 parts by weight): A (the transmittance was 80% or greater)

O=c1oc2cc(O)ccc2c2cc(O)ccc12 [Isourolithin A, isourolithin A]
Transmittance results [1, 6]: B (the transmittance was 40% or greater and less than 80%)

O=c1oc2cc(O)ccc2c2ccc(O)cc12 [Urolithin A, urolithin A]
Transmittance results [2, 8]: C (the transmittance was less than 40%)
Transmittance results ([2]; Urolithin A 0.1, Decaglyn 1-LF (HLB 15.5) 5 parts by weight, heated 105° C. 3 min): C (the transmittance was less than 40%)
Transmittance results [2, 9]: B (the transmittance was 40% or greater and less than 80%)
Transmittance results ([2]; Urolithin A 0.1, Decaglyn 1-LF (HLB 15.5) 50 parts by weight, heated 100° C. 3 min): C (the transmittance was less than 40%)
Transmittance results ([2]; Urolithin A 0.1, Decaglyn 1-LF (HLB 15.5) 50 parts by weight, heated 105° C. 3 min): A (the transmittance was 80% or greater)
Transmittance results ([2]; Urolithin A 0.1, Decaglyn 1-LF (HLB 15.5) 50 parts by weight, heated 120° C. 3 min): A (the transmittance was 80% or greater)
Transmittance results [2, 10]: C (the transmittance was less than 40%)
Transmittance results ([2]; Urolithin A 0.1, RYOTO polyglyester L-7D (HLB 17.0) 5 parts by weight, heated 105° C. 3 min): C (the transmittance was less than 40%)
Transmittance results [2, 11]: A (the transmittance was 80% or greater)
Transmittance results ([2]; Urolithin A 0.1, RYOTO polyglyester L-7D (HLB 17.0) 50 parts by weight, heated 100° C. 3 min): C (the transmittance was less than 40%)
Transmittance results ([2]; Urolithin A 0.1, RYOTO polyglyester L-7D (HLB 17.0) 50 parts by weight, heated 105° C. 3 min): A (the transmittance was 80% or greater)
Transmittance results ([2]; Urolithin A 0.1, RYOTO polyglyester L-7D (HLB 17.0) 50 parts by weight, heated 120° C. 3 min): A (the transmittance was 80% or greater)
Transmittance results ([3]; Urolithin A 0.1, Decaglyn 1-LF (HLB 15.5) 5 parts by weight, heated 80° C. 3 min): C (the transmittance was less than 40%)
Transmittance results [3, 8]: C (the transmittance was less than 40%)
Transmittance results [3, 9]: B (the transmittance was 40% or greater and less than 80%)
Transmittance results ([3]; Urolithin A 0.1, Decaglyn 1-MF (HLB 14.0) 5 parts by weight, heated 80° C. 3 min): C (the transmittance was less than 40%)
Transmittance results ([3]; Urolithin A 0.1, Decaglyn 1-MF (HLB 14.0) 5 parts by weight, heated 100° C. 3 min): C (the transmittance was less than 40%)
Transmittance results ([3]; Urolithin A 0.1, Decaglyn 1-MF (HLB 14.0) 5 parts by weight, heated 120° C. 3 min): B (the transmittance was 40% or greater and less than 80%)
Transmittance results ([3]; Urolithin A 0.1, Decaglyn 1-OVF (HLB 12.0) 5 parts by weight, heated 80° C. 3 min): C (the transmittance was less than 40%)
Transmittance results ([3]; Urolithin A 0.1, Decaglyn 1-OVF (HLB 12.0) 5 parts by weight, heated 100° C. 3 min): C (the transmittance was less than 40%)
Transmittance results ([3]; Urolithin A 0.1, Decaglyn 1-OVF (HLB 12.0) 5 parts by weight, heated 120° C. 3 min): B (the transmittance was 40% or greater and less than 80%)
Transmittance results ([3]; Urolithin A 0.1, RYOTO polyglyester L-7D (HLB 17.0) 5 parts by weight, heated 80° C. 3 min): C (the transmittance was less than 40%)
Transmittance results [3, 10]: C (the transmittance was less than 40%)
Transmittance results [3, 11]: A (the transmittance was 80% or greater)
Transmittance results ([3]; Urolithin A 0.1, RYOTO polyglyester O-15D (HLB 13.0) 5 parts by weight, heated 80° C. 3 min): C (the transmittance was less than 40%)
Transmittance results ([3]; Urolithin A 0.1, RYOTO polyglyester O-15D (HLB 13.0) 5 parts by weight, heated 100° C. 3 min): C (the transmittance was less than 40%)
Transmittance results ([3]; Urolithin A 0.1, RYOTO polyglyester O-15D (HLB 13.0) 5 parts by weight, heated 120° C. 3 min): B (the transmittance was 40% or greater and less than 80%)
Transmittance results ([3]; Urolithin A 0.1, RYOTO polyglyester O-50D (HLB 7) 5 parts by weight, heated 80° C. 3 min): C (the transmittance was less than 40%)
Transmittance results ([3]; Urolithin A 0.1, RYOTO polyglyester O-50D (HLB 7) 5 parts by weight, heated 100° C. 3 min): C (the transmittance was less than 40%)
Transmittance results ([3]; Urolithin A 0.1, RYOTO polyglyester O-50D (HLB 7) 5 parts by weight, heated 120° C. 3 min): C (the transmittance was less than 40%)
Transmittance results ([3]; Urolithin A 0.1, Sugar ester S-1170 (HLB about 11) 5 parts by weight, heated 80° C. 3 min): C (the transmittance was less than 40%)
Transmittance results ([3]; Urolithin A 0.1, Sugar ester S-1170 (HLB about 11) 5 parts by weight, heated 100° C. 3 min): C (the transmittance was less than 40%)
Transmittance results ([3]; Urolithin A 0.1, Sugar ester S-1170 (HLB about 11) 5 parts by weight, heated 120° C. 3 min): C (the transmittance was less than 40%)
Transmittance results ([4]; Urolithin A 0.2, Decaglyn 1-LF (HLB 15.5) 5 parts by weight): C (the transmittance was less than 40%)
Transmittance results ([4]; Urolithin A 0.2, Decaglyn 1-LF (HLB 15.5) 10 parts by weight): B (the transmittance was 40% or greater and less than 80%)
Transmittance results ([4]; Urolithin A 0.2, Decaglyn 1-LF (HLB 15.5) 50 parts by weight): A (the transmittance was 80% or greater)
Transmittance results ([4]; Urolithin A 0.2, RYOTO polyglyester L-7D (HLB 17.0) 5 parts by weight): C (the transmittance was less than 40%)
Transmittance results ([4]; Urolithin A 0.2, RYOTO polyglyester L-7D (HLB 17.0) 10 parts by weight): B (the transmittance was 40% or greater and less than 80%)
Transmittance results ([4]; Urolithin A 0.2, RYOTO polyglyester L-7D (HLB 17.0) 50 parts by weight): A (the transmittance was 80% or greater)
Transmittance results ([4]; Urolithin A 0.5, RYOTO polyglyester L-7D (HLB 17.0) 50 parts by weight): A (the transmittance was 80% or greater)
oil solubility ([5]; background statement): low
solubility in high-temperature vegetable oil or the like ([5]; background statement): not soluble
solubility in water ([5]; water at 30° C. (Patent Document 4)): about 3.5 mg/L

O=c1oc2cc(O)ccc2c2cc(O)c(O)cc12 [Urolithin C, urolithin C]
Transmittance results [1, 7]: A (the transmittance was 80% or greater)

O=c1oc2c(O)c(O)ccc2c2c(O)c(O)c(O)cc12 [Urolithin M5, urolithin M5]
Transmittance results [1, 7]: A (the transmittance was 80% or greater)
